Measurements taken from patent publication US9144239B2, “Macrocyclic picolinamides as fungicides” (DOW AGROSCIENCES LLC, priority 2012, dated 2015).
Read-outs that look alike come from different tables or passages of the source.

Tests used:
[1] = test system: Puccinia triticina; synonym: Puccinia recondita f. sp. tritici; assay: Fungicidal activity: wheat brown rust (PUCCRT), wheat seedlings; assay type: in vivo
Summary of the method: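 Wheat (Yuma) seedlings at first-leaf stage, inoculated with Puccinia triticina spores before or after treatment, held overnight in dark dew room at 22° C, 100% RH, then greenhouse at 24° C. Acetone solutions diluted with nine volumes water containing 110 ppm Triton X-100, sprayed to run-off. Percent disease control derived from severity (0–100%) relative to untreated plants.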

[2] = test system: Mycosphaerella graminicola; anamorph: Septoria tritici; assay: Fungicidal activity: leaf blotch of wheat (SEPTTR), wheat seedlings; assay type: in vivo; details: Zymoseptoria tritici
Summary of the method: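 Compounds in acetone were diluted with nine volumes of water containing 110 ppm Triton X-100 and sprayed to run-off on Yuma wheat seedlings at first-leaf stage. Septoria tritici spores were inoculated before or after treatment, followed by dew chambers at 100% RH and 20 °C, then greenhouse at 20 °C. Severity (0–100%) was scored once untreated plants were fully diseased; control was calculated relative to untreated plants.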

[3] = test system: Puccinia triticina; synonym: Puccinia recondita f. sp. tritici; assay: Fungicide mobility (dropline mobility test): wheat brown rust (PUCCRT); assay type: in vivo; details: 1 ug/leaf
Method: Evaluation of Fungicide Mobility: Wheat Brown Rust (Puccinia triticina; Synonym: Puccinia recondita f. sp. tritici; Bayer Code PUCCRT) “Yuma” wheat seedlings were used in the test. One mg of compound was dissolved in 9 μl of EC blank (emulsifiable concentrate) and 500 μl of acetone. Acetone was then evaporated overnight by leaving the vial open in a fume hood. Two milliliters of water containing 110 ppm Triton X-100 was added to each vial to prepare application solutions. A 2 μl drop of formulated material was applied to a marked line on the adaxial surface 5 cm from the leaf tip of the primary leaves. The primary leaves were kept in a horizontal position. Each treatment had 6 replicates. Plants were inoculated with PUCCRT 1-day after (1DPM) or 3-day prior to (3DCM) compound applications. When rust was fully expressed on primary leaves on control plants, the zone of treated leaves that was disease-free in the acropetal direction was measured with a ruler and converted to percent of the distance from marked line to leaf tip.

[4] = 24 h, read-out: Disease Control PUCCRT 1DP
[5] = 72 h, read-out: Disease Control PUCCRT 3DC
[6] = 24 h, read-out: Disease Control SEPTTR 1DP
[7] = 72 h, read-out: Disease Control SEPTTR 3DC
[8] = 24 h, 100 ppm, 1 Day Protectant, wheat, read-out: Disease Control PUCCRT 1DP
[9] = 72 h, 100 ppm, 3 Day Curative, wheat, read-out: Disease Control PUCCRT 3DC
[10] = 24 h, 1 Day Protectant Mobility, read-out: Dropline Mobility Test PUCCRT 1DPM
[11] = 72 h, 3 Day Curative Mobility, read-out: Dropline Mobility Test PUCCRT 3DCM
[12] = 24 h, 100 ppm, 1 Day Protectant, wheat, read-out: Disease Control SEPTTR 1DP
[13] = 72 h, 100 ppm, 3 Day Curative, wheat, read-out: Disease Control SEPTTR 3DC

SMILES | pest or weed control at 100 ppm [1, 4] [%] | pest or weed control at 100 ppm [1, 5] [%] | melting point [°C] | pest or weed control at 100 ppm [2, 6] [%] | pest or weed control at 100 ppm [2, 7] [%] | pest or weed control at 100 ppm [1, 8] [%] | pest or weed control at 100 ppm [1, 9] [%] | pest or weed control at 1 µg/leaf [3, 10] [%] | pest or weed control at 1 µg/leaf [3, 11] [%] | pest or weed control at 100 ppm [2, 12] [%] | pest or weed control at 100 ppm [2, 13] [%]
COc1ccnc(C(=O)N[C@H]2COC[C@H](OC(=O)C(C)C)[C@@H](OC(=O)C(C)C)[C@H](C)OC2=O)c1O [Compound 56, (3S,7S,8S,9S)-3-(3-hydroxy-4-methoxypicolinamido)-9-methyl-2-oxo-1,5-dioxonane-7,8-diyl bis(2-methylpropanoate)] | 80 to 100 | 80 to 100 | 111 to 113 | 0 to 80 | 80 to 100 |  |  |  |  |  | 
COc1ccnc(C(=O)N[C@H]2COC[C@H](OCc3ccccc3)[C@@H](OCc3ccccc3)[C@H](C)OC2=O)c1O [Compound 11, N-((3S,7S,8S,9S)-7,8-bis(benzyloxy)-9-methyl-2-oxo-1,5-dioxonan-3-yl)-3-hydroxy-4-methoxypicolinamide] |  |  | 144 to 146 |  |  | 80 to 100 | 80 to 100 | 0 to 80 | 0 to 80 | 80 to 100 | 0 to 80
COc1ccnc(C(=O)N[C@H]2COC[C@H](OCC3CC3)[C@@H](OCC3CC3)[C@H](C)OC2=O)c1O [Compound 209] |  |  | 114 to 117 |  |  | 0 to 80 | 0 to 80 |  |  |  | 0 to 80
CCCCO[C@H]1COC[C@H](NC(=O)c2nccc(OC)c2O)C(=O)O[C@@H](C)[C@@H]1OCC(C)C [Compound 48, N-((3S,7S,8S,9S)-7-butoxy-8-isobutoxy-9-methyl-2-oxo-1,5-dioxonan-3-yl)-3-hydroxy-4-methoxypicolinamide] |  |  | 104 to 106 |  |  | 80 to 100 | 80 to 100 |  |  | 80 to 100 | 80 to 100
COc1ccnc(C(=O)N[C@@H]2COC[C@H](OCC(C)C)[C@@H](OCC(C)C)COC2=O)c1O [Compound 10] |  |  | 92 to 97 |  |  | 0 to 80 | 0 to 80 |  |  | 0 to 80 | 0 to 80
COc1ccnc(C(=O)N[C@H]2COC[C@H](OC)[C@@H](OC)[C@H](C)OC2=O)c1O [Compound 63, N-((3S,7S,8S,9S)-7,8-dimethoxy-9-methyl-2-oxo-1,5-dioxonan-3-yl)-3-hydroxy-4-methoxypicolinamide] |  |  | 165 to 167 |  |  |  |  | 0 to 80 |  |  | 0 to 80
CCCCO[C@H]1COC[C@H](NC(=O)c2nccc(OC)c2O)C(=O)O[C@@H](C)[C@@H]1OCc1ccccc1 [Compound 33, N-((3S,7S,8S,9S)-8-(benzyloxy)-7-butoxy-9-methyl-2-oxo-1,5-dioxonan-3-yl)-3-hydroxy-4-methoxypicolinamide] | 80 to 100 | 80 to 100 | 117 to 119 | 80 to 100 | 0 to 80 |  |  |  |  |  | 
COc1ccnc(C(=O)N[C@H]2COC[C@H](OCC(C)C)[C@@H](OCC(C)C)COC2=O)c1OCOC(C)=O [Compound 13] |  |  | 58 to 64 |  |  | 80 to 100 | 80 to 100 |  |  | 80 to 100 | 
C=CCO[C@H]1[C@H](C)OC(=O)[C@@H](NC(=O)c2nccc(OC)c2O)COC[C@@H]1OCCCC [Compound 43, N-((3S,7S,8S,9S)-8-(allyloxy)-7-butoxy-9-methyl-2-oxo-1,5-dioxonan-3-yl)-3-hydroxy-4-methoxypicolinamide] |  |  | 101 to 103 |  |  | 80 to 100 | 80 to 100 |  |  | 80 to 100 | 0 to 80
CCCCO[C@H]1COC[C@H](NC(=O)c2nccc(OC)c2O)C(=O)O[C@@H](C)[C@@H]1OCC(F)F [Compound 53, N-((3S,7S,8S,9S)-7-butoxy-8-(2,2-difluoroethoxy)-9-methyl-2-oxo-1,5-dioxonan-3-yl)-3-hydroxy-4-methoxypicolinamide] | 80 to 100 | 80 to 100 | 127 to 129 | 0 to 80 | 0 to 80 |  |  |  |  |  | 
COc1ccnc(C(=O)N[C@H]2COC[C@H](OCC3CC3)[C@@H](OCC3CC3)[C@H](C)OC2=O)c1OC(C)=O [Compound 232] |  |  | 54 to 60 |  |  | 80 to 100 | 80 to 100 |  |  | 80 to 100 | 0 to 80
CCCCO[C@H]1COC[C@H](NC(=O)c2nccc(OC)c2O)C(=O)O[C@@H](C)[C@@H]1OCCC [Compound 44, N-((3S,7S,8S,9S)-7-butoxy-9-methyl-2-oxo-8-propoxy-1,5-dioxonan-3-yl)-3-hydroxy-4-methoxypicolinamide] |  |  | 110 to 112 |  |  | 80 to 100 | 80 to 100 |  |  | 80 to 100 | 80 to 100
CCC(C)(C)O[C@H]1COC[C@H](NC(=O)c2nccc(OC)c2O)C(=O)O[C@@H](C)[C@@H]1OCC(C)C [Compound 71, 3-hydroxy-N-((3S,7S,8S,9S)-8-isobutoxy-9-methyl-2-oxo-7-(tert-pentyloxy)-1,5-dioxonan-3-yl)-4-methoxypicolinamide] |  |  | 138 to 140 |  |  | 80 to 100 | 0 to 80 |  |  | 80 to 100 | 0 to 80
CCCCO[C@H]1COC[C@H](NC(=O)c2nccc(OC)c2O)C(=O)O[C@@H](C)[C@@H]1OC [Compound 36, N-((3S,7S,8S,9S)-7-butoxy-8-methoxy-9-methyl-2-oxo-1,5-dioxonan-3-yl)-3-hydroxy-4-methoxypicolinamide] |  |  | 118 to 120 |  |  | 80 to 100 | 80 to 100 |  |  | 0 to 80 | 0 to 80
CCCCO[C@H]1COC[C@H](NC(=O)c2nccc(OC)c2O)C(=O)O[C@@H](C)[C@@H]1OCC(C)(C)Cl [Compound 87, N-((3S,7S,8S,9S)-7-butoxy-8-(2-chloro-2-methylpropoxy)-9-methyl-2-oxo-1,5-dioxonan-3-yl)-3-hydroxy-4-methoxypicolinamide] |  |  | 115 to 117 |  |  |  |  | 0 to 80 | 80 to 100 |  | 
CCCCO[C@H]1COC[C@H](NC(=O)c2nccc(OC)c2O)C(=O)O[C@@H](C)[C@@H]1OCCOC [Compound 52, N-((3S,7S,8S,9S)-7-butoxy-8-(2-methoxyethoxy)-9-methyl-2-oxo-1,5-dioxonan-3-yl)-3-hydroxy-4-methoxypicolinamide] |  | 80 to 100 | 75 to 77 | 0 to 80 | 0 to 80 |  |  |  |  |  | 
CCCCO[C@H]1[C@H](C)OC(=O)[C@@H](NC(=O)c2nccc(OC)c2O)COC[C@@H]1OCc1ccccc1 [Compound 32, N-((3S,7S,8S,9S)-7-(benzyloxy)-8-butoxy-9-methyl-2-oxo-1,5-dioxonan-3-yl)-3-hydroxy-4-methoxypicolinamide] |  |  | 105 to 107 |  |  | 80 to 100 | 80 to 100 |  |  | 80 to 100 | 0 to 80
